Source: patent US20250144067A1, “PERSONALIZED STARVATION THERAPY FOR CANCER” (Faeth Therapeutics, Inc., priority 2021, published 2025)
Where a name gives a salt, the structure may show the parent alone.

Each compound was assayed on NCI-H292 lung cancer cells (assay: FDA drug screening, complete media vs cholesterol-free media without statin (TABLE 1)). Conditions: not given.
Type: cell-based, human
Compound `CN(C)C(=O)C(CCN1CCC(O)(c2ccc(Cl)cc2)CC1)(c1ccccc1)c1ccccc1` [Loperamide (hydrochloride)] has a Cholesterol-free of 1.105, a Complete of 0.9631 and a Difference of −0.14.

Same assay, conditions: Complete minus Cholesterol-free; >0 enhanced anti-cancer activity, about 0 neutral, <0 antagonist
`N#Cc1cc(NC(=O)C(=O)O)c(Cl)c(NC(=O)C(=O)O)c1` [Lodoxamide] was tested, and the Difference was −0.26. In the case of `O=C(NC1CCN(CCCCC2(C(=O)NCC(F)(F)F)c3ccccc3-c3ccccc32)CC1)c1ccccc1-c1ccc(C(F)(F)F)cc1` [Lomitapide], the Difference is reported as −0.25. Compound `CCOC(=O)N1CCC(=C2c3ccc(Cl)cc3CCc3cccnc32)CC1` [Loratadine] has a Difference of −0.30. In the case of `CCCCc1nc(Cl)c(CO)n1Cc1ccc(-c2ccccc2-c2nn[nH]n2)cc1` [Losartan (potassium)], the Difference is reported as −0.24. Compound `CCCCc1nc(Cl)c(CO)n1Cc1ccc(-c2ccccc2-c2nn[nH]n2)cc1` [Losartan] has a Difference of −0.28. In the case of `CN1CCN(C2=Nc3ccccc3Oc3ccc(Cl)cc32)CC1` [Loxapine], the Difference is reported as −0.26. Work on `CC(C(=O)O)c1ccc(CC2CCCC2=O)cc1` (stereo not drawn) [Loxoprofen (sodium)] yielded a Difference of −0.22. For `CCCCC(F)(F)[C@@]1(O)CC[C@H]2[C@@H](CC(=O)[C@@H]2CCCCCCC(=O)O)O1` [Lubiprostone], the Difference was −0.28. Compound `Cc1ccc(NC(=O)C2(c3ccc4c(c3)OC(F)(F)O4)CC2)nc1-c1cccc(C(=O)O)c1` [Lumacaftor] has a Difference of −0.19.

Same assay, conditions: Complete minus Cholesterol-free; […]
With `O=NN(CCCl)C(=O)NC1CCCCC1` [Lomustine] the Difference was −0.14.

Same assay, conditions: NCI-H292 cells, FDA drug library screen, cholesterol-free media without statin
For `O=NN(CCCl)C(=O)NC1CCCCC1` [Lomustine], the Cholesterol-free was 1.107.

Same assay, conditions: NCI-H292 cells, FDA drug library screen, complete media
With `O=NN(CCCl)C(=O)NC1CCCCC1` [Lomustine] the Complete was 0.965.

Same assay, conditions: NCI-H292 cells, cholesterol-free media without statin
For `N#Cc1cc(NC(=O)C(=O)O)c(Cl)c(NC(=O)C(=O)O)c1` [Lodoxamide], the Cholesterol-free was 1.144. Compound `O=C(NC1CCN(CCCCC2(C(=O)NCC(F)(F)F)c3ccccc3-c3ccccc32)CC1)c1ccccc1-c1ccc(C(F)(F)F)cc1` [Lomitapide] has a Cholesterol-free of 0.9551. Compound `CCOC(=O)N1CCC(=C2c3ccc(Cl)cc3CCc3cccnc32)CC1` [Loratadine] has a Cholesterol-free of 1.122. In the case of `CCCCc1nc(Cl)c(CO)n1Cc1ccc(-c2ccccc2-c2nn[nH]n2)cc1` [Losartan (potassium)], the Cholesterol-free is reported as 1.05. With `CCCCc1nc(Cl)c(CO)n1Cc1ccc(-c2ccccc2-c2nn[nH]n2)cc1` [Losartan] the Cholesterol-free was 1.549. With `CN1CCN(C2=Nc3ccccc3Oc3ccc(Cl)cc32)CC1` [Loxapine] the Cholesterol-free was 1.313. `CC(C(=O)O)c1ccc(CC2CCCC2=O)cc1` (stereo not drawn) [Loxoprofen (sodium)] gave a Cholesterol-free of 0.9775. `CCCCC(F)(F)[C@@]1(O)CC[C@H]2[C@@H](CC(=O)[C@@H]2CCCCCCC(=O)O)O1` [Lubiprostone] showed a Cholesterol-free of 1.064. In the case of `Cc1ccc(NC(=O)C2(c3ccc4c(c3)OC(F)(F)O4)CC2)nc1-c1cccc(C(=O)O)c1` [Lumacaftor], the Cholesterol-free is reported as 1.044.

Same assay, conditions: NCI-H292 cells, complete media
`N#Cc1cc(NC(=O)C(=O)O)c(Cl)c(NC(=O)C(=O)O)c1` [Lodoxamide] was tested, and the Complete was 0.8858. `O=C(NC1CCN(CCCCC2(C(=O)NCC(F)(F)F)c3ccccc3-c3ccccc32)CC1)c1ccccc1-c1ccc(C(F)(F)F)cc1` [Lomitapide] was tested, and the Complete was 0.7097. In the case of `CCOC(=O)N1CCC(=C2c3ccc(Cl)cc3CCc3cccnc32)CC1` [Loratadine], the Complete is reported as 0.8264. Compound `CCCCc1nc(Cl)c(CO)n1Cc1ccc(-c2ccccc2-c2nn[nH]n2)cc1` [Losartan (potassium)] has a Complete of 0.8102. For `CCCCc1nc(Cl)c(CO)n1Cc1ccc(-c2ccccc2-c2nn[nH]n2)cc1` [Losartan], the Complete was 1.271. `CN1CCN(C2=Nc3ccccc3Oc3ccc(Cl)cc32)CC1` [Loxapine] was tested, and the Complete was 1.056. For `CC(C(=O)O)c1ccc(CC2CCCC2=O)cc1` (stereo not drawn) [Loxoprofen (sodium)], the Complete was 0.7554. `CCCCC(F)(F)[C@@]1(O)CC[C@H]2[C@@H](CC(=O)[C@@H]2CCCCCCC(=O)O)O1` [Lubiprostone] was tested, and the Complete was 0.7833. `Cc1ccc(NC(=O)C2(c3ccc4c(c3)OC(F)(F)O4)CC2)nc1-c1cccc(C(=O)O)c1` [Lumacaftor] was tested, and the Complete was 0.854.

Each compound was assayed on NCI-H292 lung cancer cells (assay: FDA drug screening, complete media vs cholesterol-free media with simvastatin (TABLE 2)). Conditions: not given.
Type: cell-based, human
For `CN(C)C(=O)C(CCN1CCC(O)(c2ccc(Cl)cc2)CC1)(c1ccccc1)c1ccccc1` [Loperamide (hydrochloride)], the “Cholesterol-free media + simvastatin (0.04 μM)” value was 1.197, the “Complete Media” value was 0.9577 and the Difference was −0.24.

Same assay, conditions: NCI-H292 cells, FDA drug library screen, cholesterol-free media with simvastatin 0.04 μM
For `CC(C(=O)O)c1ccc(CC2CCCC2=O)cc1` (stereo not drawn) [Loxoprofen (sodium)], the “Cholesterol-free media + simvastatin (0.04 μM)” value was 1.087. In the case of `CCCCC(F)(F)[C@@]1(O)CC[C@H]2[C@@H](CC(=O)[C@@H]2CCCCCCC(=O)O)O1` [Lubiprostone], the “Cholesterol-free media + simvastatin (0.04 μM)” value is reported as 1.061.

Same assay, conditions: NCI-H292 cells, FDA drug library screen, complete media
In the case of `CC(C(=O)O)c1ccc(CC2CCCC2=O)cc1` (stereo not drawn) [Loxoprofen (sodium)], the “Complete Media” value is reported as 1.62. In the case of `CCCCC(F)(F)[C@@]1(O)CC[C@H]2[C@@H](CC(=O)[C@@H]2CCCCCCC(=O)O)O1` [Lubiprostone], the “Complete Media” value is reported as 1.267.

Same assay, conditions: NCI-H292 cells, FDA library drug in cholesterol-free media with simvastatin 0.04 μM
In the case of `CCCCc1nc(Cl)c(CO)n1Cc1ccc(-c2ccccc2-c2nn[nH]n2)cc1` [Losartan], the “Cholesterol-free media + simvastatin (0.04 μM)” value is reported as 1.37.

Same assay, conditions: NCI-H292 cells, FDA library drug in complete media
With `CCCCc1nc(Cl)c(CO)n1Cc1ccc(-c2ccccc2-c2nn[nH]n2)cc1` [Losartan] the “Complete Media” value was 0.8741.

Same assay, conditions: NCI-H292 cells, cholesterol-free media with simvastatin 0.04 μM; FDA drug library screen (TABLE 2)
`O=NN(CCCl)C(=O)NC1CCCCC1` [Lomustine] was tested, and the “Cholesterol-free media + simvastatin (0.04 μM)” value was 0.7579.

Same assay, conditions: NCI-H292 cells, cholesterol-free media with simvastatin 0.04 μM; cell growth value in FDA drug screen
With `CCOC(=O)N1CCC(=C2c3ccc(Cl)cc3CCc3cccnc32)CC1` [Loratadine] the “Cholesterol-free media + simvastatin (0.04 μM)” value was 0.8147. With `CN1CCN(C2=Nc3ccccc3Oc3ccc(Cl)cc32)CC1` [Loxapine] the “Cholesterol-free media + simvastatin (0.04 μM)” value was 0.8194.

Same assay, conditions: NCI-H292 cells, complete media; FDA drug library screen (TABLE 2)
With `O=NN(CCCl)C(=O)NC1CCCCC1` [Lomustine] the “Complete Media” value was 0.7602.

Same assay, conditions: NCI-H292 cells, complete media; cell growth value in FDA drug screen
In the case of `CCOC(=O)N1CCC(=C2c3ccc(Cl)cc3CCc3cccnc32)CC1` [Loratadine], the “Complete Media” value is reported as 0.9097. For `CN1CCN(C2=Nc3ccccc3Oc3ccc(Cl)cc32)CC1` [Loxapine], the “Complete Media” value was 0.9125.

Same assay, conditions: NCI-H292 cells, drug in cholesterol-free media with simvastatin 0.04 μM
`N#Cc1cc(NC(=O)C(=O)O)c(Cl)c(NC(=O)C(=O)O)c1` [Lodoxamide] was tested, and the “Cholesterol-free media + simvastatin (0.04 μM)” value was 1.021. In the case of `O=C(NC1CCN(CCCCC2(C(=O)NCC(F)(F)F)c3ccccc3-c3ccccc32)CC1)c1ccccc1-c1ccc(C(F)(F)F)cc1` [Lomitapide], the “Cholesterol-free media + simvastatin (0.04 μM)” value is reported as 1.325. `CCCCc1nc(Cl)c(CO)n1Cc1ccc(-c2ccccc2-c2nn[nH]n2)cc1` [Losartan (potassium)] was tested, and the “Cholesterol-free media + simvastatin (0.04 μM)” value was 1.17. For `Cc1ccc(NC(=O)C2(c3ccc4c(c3)OC(F)(F)O4)CC2)nc1-c1cccc(C(=O)O)c1` [Lumacaftor], the “Cholesterol-free media + simvastatin (0.04 μM)” value was 1.744.

Same assay, conditions: NCI-H292 cells, drug in complete media
`N#Cc1cc(NC(=O)C(=O)O)c(Cl)c(NC(=O)C(=O)O)c1` [Lodoxamide] was tested, and the “Complete Media” value was 0.7589. For `O=C(NC1CCN(CCCCC2(C(=O)NCC(F)(F)F)c3ccccc3-c3ccccc32)CC1)c1ccccc1-c1ccc(C(F)(F)F)cc1` [Lomitapide], the “Complete Media” value was 1.07. `CCCCc1nc(Cl)c(CO)n1Cc1ccc(-c2ccccc2-c2nn[nH]n2)cc1` [Losartan (potassium)] was tested, and the “Complete Media” value was 0.9634. With `Cc1ccc(NC(=O)C2(c3ccc4c(c3)OC(F)(F)O4)CC2)nc1-c1cccc(C(=O)O)c1` [Lumacaftor] the “Complete Media” value was 1.539.

Same assay, conditions: complete media minus cholesterol-free media + simvastatin (0.04 μM); […]
Compound `O=NN(CCCl)C(=O)NC1CCCCC1` [Lomustine] has a Difference of 0.00.

Same assay, conditions: complete media minus cholesterol-free media + simvastatin; >0 enhanced anti-cancer activity, about 0 neutral, <0 antagonist
In the case of `CCOC(=O)N1CCC(=C2c3ccc(Cl)cc3CCc3cccnc32)CC1` [Loratadine], the Difference is reported as 0.10. Work on `CN1CCN(C2=Nc3ccccc3Oc3ccc(Cl)cc32)CC1` [Loxapine] yielded a Difference of 0.09. `CC(C(=O)O)c1ccc(CC2CCCC2=O)cc1` (stereo not drawn) [Loxoprofen (sodium)] was tested, and the Difference was 0.53. Compound `CCCCC(F)(F)[C@@]1(O)CC[C@H]2[C@@H](CC(=O)[C@@H]2CCCCCCC(=O)O)O1` [Lubiprostone] has a Difference of 0.21.

Same assay, conditions: complete media vs cholesterol-free media + simvastatin (0.04 μM); >0 enhanced anti-cancer activity, about 0 neutral, <0 antagonist
For `N#Cc1cc(NC(=O)C(=O)O)c(Cl)c(NC(=O)C(=O)O)c1` [Lodoxamide], the Difference was −0.26. `O=C(NC1CCN(CCCCC2(C(=O)NCC(F)(F)F)c3ccccc3-c3ccccc32)CC1)c1ccccc1-c1ccc(C(F)(F)F)cc1` [Lomitapide] gave a Difference of −0.25. Compound `CCCCc1nc(Cl)c(CO)n1Cc1ccc(-c2ccccc2-c2nn[nH]n2)cc1` [Losartan (potassium)] has a Difference of −0.21. `CCCCc1nc(Cl)c(CO)n1Cc1ccc(-c2ccccc2-c2nn[nH]n2)cc1` [Losartan] showed a Difference of −0.50. `Cc1ccc(NC(=O)C2(c3ccc4c(c3)OC(F)(F)O4)CC2)nc1-c1cccc(C(=O)O)c1` [Lumacaftor] gave a Difference of −0.20.
